# Like-named read-outs stand apart in the source and are kept apart here. Numbered stars: 1 amine (or outer) side, 2 acyl side, 3 side chain; on linkers, the order of the positions; unused ones are H or OH. Bridge positions count the residues as written; N and C are the ends. Square brackets hold non-standard residues; d marks the D form. Peptide text beside a SMILES is read from it. * marks the point of attachment. C20 diacid = O=C(O)CCCCCCCCCCCCCCCCCCC(=O)*; γGlu = O=C(O)[C@H](CCC(=O)[*:2])N[*:1]; NMeI = CC[C@H](C)[C@H](NC)C(=O)O; Sar = CNCC(=O)O
# Legend:
# [1] = Solubility assessment (turbidity absorbance at 325 nm); format: physicochemical; settings: stock 2 mg/ml diluted 1:1, ambient temperature (typically 25°C), n=1; for Solubility, Acetate buffer pH 4: 100 mM acetate buffer pH 4.0; for Solubility, Acetate buffer pH 5: 100 mM acetate buffer pH 5.0; for Solubility, Histidine buffer pH 6: 100 mM histidine buffer pH 6.0; for Solubility, Histidine buffer pH 7: 100 mM histidine buffer pH 7.0; for Solubility, Phosphate buffer pH 6: 100 mM phosphate buffer pH 6.0; for Solubility, Phosphate buffer pH 7: 100 mM phosphate buffer pH 7.0; for Solubility, Phosphate buffer pH 7.5: 100 mM phosphate buffer pH7.5
# Outline: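 Read-out: turbidity as absorbance at 325 nm (280 nm also read), single samples, ambient temperature of typically 25°C. Samples were a 1:1 mix of 2 mg/ml stock (water, pH 2.5) with 100 mM acetate, histidine or phosphate buffers spanning pH 4.0–7.5. Cut-off: A325 ≤ 0.02 indicates ≥ 1 mg/ml.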
# [2] = target: T1, human calcitonin receptor (hCTR2) (Homo sapiens, UniProt P30988); assay: hCTR2 assay: induction of cAMP (AlphaScreen cAMP Assay kit) in COS7 cells expressing hCTR2; format: cell-based
# T1 construct: expressed in transfected cells
# T1 sequence (P30988 25-474): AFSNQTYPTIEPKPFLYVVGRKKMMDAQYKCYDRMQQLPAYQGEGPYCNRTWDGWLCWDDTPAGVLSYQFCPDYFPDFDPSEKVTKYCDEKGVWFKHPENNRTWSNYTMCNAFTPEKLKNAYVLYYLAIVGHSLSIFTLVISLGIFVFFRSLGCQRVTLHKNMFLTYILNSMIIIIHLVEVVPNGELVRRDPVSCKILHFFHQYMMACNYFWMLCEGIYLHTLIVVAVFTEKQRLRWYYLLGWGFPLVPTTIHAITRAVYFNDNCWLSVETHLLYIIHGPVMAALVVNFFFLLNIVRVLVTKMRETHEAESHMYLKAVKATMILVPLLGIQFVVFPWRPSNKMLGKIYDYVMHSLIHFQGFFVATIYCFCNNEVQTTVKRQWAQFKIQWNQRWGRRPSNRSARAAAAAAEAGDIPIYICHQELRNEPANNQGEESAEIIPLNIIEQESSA
# Outline: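 cAMP read-out by AlphaScreen after cell lysis; EC50 and % efficacy vs pramlintide from 4-parameter logistic fitting. Agonist stimulation: hCTR2-COS7 stable cells, 15 min, 37° C, 100 µM IBMX, 0.1% casein, Tyrode/HEPES pH 7.4.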
# [3] = cAMP induction in COS7 cells expressing hCTR2, average of a minimum of 3 determinations, read-out: hCTR2 EC50
"EC50 [2, 3] [nM]",SMILES,"Solubility, Acetate buffer pH 4 [1]","Solubility, Acetate buffer pH 5 [1]","Solubility, Histidine buffer pH 6 [1]","Solubility, Histidine buffer pH 7 [1]","Solubility, Phosphate buffer pH 6 [1]","Solubility, Phosphate buffer pH 7 [1]","Solubility, Phosphate buffer pH 7.5 [1]",EC50 [2] [nM]
,"CC[C@H](C)[C@@H](C(=O)N[C@@H](CC(C)C)C(=O)N[C@@H](CO)C(=O)N[C@@H](CO)C(=O)N[C@H](C(=O)N[C@@H](CC(N)=O)C(=O)N[C@H](C(=O)NCC(=O)N[C@@H](CO)C(=O)N[C@@H](CC(N)=O)C(=O)N[C@H](C(=O)N1CCC[C@H]1C(N)=O)[C@@H](C)O)C(C)C)[C@@H](C)O)N(C)C(=O)[C@H](C)NC(=O)CN(C)C(=O)[C@H](Cc1ccccc1)NC(=O)[C@H](CC(N)=O)NC(=O)[C@H](CC(N)=O)NC(=O)[C@H](CO)NC(=O)[C@H](CO)NC(=O)[C@H](Cc1c[nH]cn1)NC(=O)[C@H](Cc1c[nH]cn1)NC(=O)[C@H](CC(C)C)NC(=O)[C@H](Cc1ccccc1)NC(=O)[C@H](CCC(=O)O)NC(=O)[C@H](C)NC(=O)[C@H](CC(C)C)NC(=O)[C@H](CCCNC(=N)N)NC(=O)[C@H](CCC(N)=O)NC(=O)[C@@H](NC(=O)[C@H](C)NC(=O)[C@@H]1CSSC[C@H](NC(=O)[C@H](CCCCN)NC(=O)CC[C@H](NC(=O)CCCCCCCCCCCCCCCCCCC(=O)O)C(=O)O)C(=O)N[C@@H](CC(N)=O)C(=O)N[C@@H]([C@@H](C)O)C(=O)N[C@@H](C)C(=O)N[C@@H]([C@@H](C)O)C(=O)N1)[C@@H](C)O [Compound 19, [19CD]-isoGlu-KC()NTATC()ATQRLAEFLHHSSNNF-Gly(Me)-A-Ile(Me)-LSSTNVGSNTP-NH2] ({C20 diacid-γGlu}-KCNTATCATQRLAEFLHHSSNNF[Sar]A[NMeI]LSSTNVGSNTP-NH2; disulfide 2-7)",SS (SS indicates solubility ≥ 1mg/ml),SS (SS indicates solubility ≥ 1mg/ml),SS (SS indicates solubility ≥ 1mg/ml),SS (SS indicates solubility ≥ 1mg/ml),SS (SS indicates solubility ≥ 1mg/ml),SS (SS indicates solubility ≥ 1mg/ml),SS (SS indicates solubility ≥ 1mg/ml),0.071
0.094,"CC[C@H](C)[C@@H](C(=O)N[C@@H](CC(C)C)C(=O)N[C@@H](CO)C(=O)N[C@@H](CO)C(=O)N[C@H](C(=O)N[C@@H](CC(N)=O)C(=O)N[C@H](C(=O)NCC(=O)N[C@@H](CO)C(=O)N[C@@H](CC(N)=O)C(=O)N[C@H](C(=O)N1CCC[C@H]1C(N)=O)[C@@H](C)O)C(C)C)[C@@H](C)O)N(C)C(=O)CN(C)C(=O)[C@H](Cc1ccccc1)NC(=O)[C@H](CC(N)=O)NC(=O)[C@H](CC(N)=O)NC(=O)[C@H](CO)NC(=O)[C@H](CO)NC(=O)[C@H](Cc1c[nH]cn1)NC(=O)[C@H](Cc1c[nH]cn1)NC(=O)[C@H](CC(C)C)NC(=O)[C@H](Cc1ccccc1)NC(=O)[C@H](CCC(=O)O)NC(=O)[C@H](C)NC(=O)[C@H](CC(C)C)NC(=O)[C@H](CCCNC(=N)N)NC(=O)[C@H](CCC(N)=O)NC(=O)[C@@H](NC(=O)[C@H](C)NC(=O)[C@@H]1CSSC[C@H](NC(=O)[C@H](CCCCN)NC(=O)CC[C@H](NC(=O)CCCCCCCCCCCCCCCCCCC(=O)O)C(=O)O)C(=O)N[C@@H](CC(N)=O)C(=O)N[C@@H]([C@@H](C)O)C(=O)N[C@@H](C)C(=O)N[C@@H]([C@@H](C)O)C(=O)N1)[C@@H](C)O [Compound 20, [19CD]-isoGlu-KC()NTATC()ATQRLAEFLHHSSNNF-Gly(Me)-Ile(Me)-LSSTNVGSNTP-NH2] ({C20 diacid-γGlu}-KCNTATCATQRLAEFLHHSSNNF[Sar][NMeI]LSSTNVGSNTP-NH2; disulfide 2-7)",SS (SS indicates solubility ≥ 1mg/ml),SS (SS indicates solubility ≥ 1mg/ml),SS (SS indicates solubility ≥ 1mg/ml),SS (SS indicates solubility ≥ 1mg/ml),SS (SS indicates solubility ≥ 1mg/ml),SS (SS indicates solubility ≥ 1mg/ml),SS (SS indicates solubility ≥ 1mg/ml),
,"CC[C@H](C)[C@@H](C(=O)N[C@@H](CC(C)C)C(=O)N[C@@H](CO)C(=O)N[C@@H](CO)C(=O)N[C@H](C(=O)N[C@@H](CC(N)=O)C(=O)N[C@H](C(=O)NCC(=O)N[C@@H](CO)C(=O)N[C@@H](CC(N)=O)C(=O)N[C@H](C(=O)N1CCC[C@H]1C(N)=O)[C@@H](C)O)C(C)C)[C@@H](C)O)N(C)C(=O)[C@H](C)NC(=O)CN(C)C(=O)[C@H](Cc1ccccc1)NC(=O)[C@H](CC(N)=O)NC(=O)[C@H](CC(N)=O)NC(=O)[C@H](CO)NC(=O)[C@H](CO)NC(=O)[C@H](Cc1c[nH]cn1)NC(=O)[C@H](CCCNC(=N)N)NC(=O)[C@H](CC(C)C)NC(=O)[C@H](Cc1ccccc1)NC(=O)[C@H](CCC(=O)O)NC(=O)[C@H](C)NC(=O)[C@H](CC(C)C)NC(=O)[C@H](CCCNC(=N)N)NC(=O)[C@H](CCC(N)=O)NC(=O)[C@@H](NC(=O)[C@H](C)NC(=O)[C@@H]1CSSC[C@H](NC(=O)[C@H](CCCNC(=N)N)NC(=O)CC[C@H](NC(=O)CCCCCCCCCCCCCCCCCCC(=O)O)C(=O)O)C(=O)N[C@@H](CC(N)=O)C(=O)N[C@@H]([C@@H](C)O)C(=O)N[C@@H](C)C(=O)N[C@@H]([C@@H](C)O)C(=O)N1)[C@@H](C)O [Compound 21, [19CD]-isoGlu-RC()NTATC()ATQRLAEFLRHSSNNF-Gly(Me)-A-Ile(Me)-LSSTNVGSNTP-NH2] ({C20 diacid-γGlu}-RCNTATCATQRLAEFLRHSSNNF[Sar]A[NMeI]LSSTNVGSNTP-NH2; disulfide 2-7)",SS (SS indicates solubility ≥ 1mg/ml),SS (SS indicates solubility ≥ 1mg/ml),SS (SS indicates solubility ≥ 1mg/ml),SS (SS indicates solubility ≥ 1mg/ml),SS (SS indicates solubility ≥ 1mg/ml),SS (SS indicates solubility ≥ 1mg/ml),SS (SS indicates solubility ≥ 1mg/ml),0.38
0.31,"CC[C@H](C)[C@@H](C(=O)N[C@@H](CC(C)C)C(=O)N[C@@H](CO)C(=O)N[C@@H](CO)C(=O)N[C@H](C(=O)N[C@@H](CC(N)=O)C(=O)N[C@H](C(=O)NCC(=O)N[C@@H](CO)C(=O)N[C@@H](CC(N)=O)C(=O)N[C@H](C(=O)N1CCC[C@H]1C(N)=O)[C@@H](C)O)C(C)C)[C@@H](C)O)N(C)C(=O)CN(C)C(=O)[C@H](Cc1ccccc1)NC(=O)[C@H](CC(N)=O)NC(=O)[C@H](CC(N)=O)NC(=O)[C@H](CO)NC(=O)[C@H](CO)NC(=O)[C@H](Cc1c[nH]cn1)NC(=O)[C@H](CCCNC(=N)N)NC(=O)[C@H](CC(C)C)NC(=O)[C@H](Cc1ccccc1)NC(=O)[C@H](CCC(=O)O)NC(=O)[C@H](C)NC(=O)[C@H](CC(C)C)NC(=O)[C@H](CCCNC(=N)N)NC(=O)[C@H](CCC(N)=O)NC(=O)[C@@H](NC(=O)[C@H](C)NC(=O)[C@@H]1CSSC[C@H](NC(=O)[C@H](CCCNC(=N)N)NC(=O)CC[C@H](NC(=O)CCCCCCCCCCCCCCCCCCC(=O)O)C(=O)O)C(=O)N[C@@H](CC(N)=O)C(=O)N[C@@H]([C@@H](C)O)C(=O)N[C@@H](C)C(=O)N[C@@H]([C@@H](C)O)C(=O)N1)[C@@H](C)O [Compound 22, [19CD]-isoGlu-RC()NTATC()ATQRLAEFLRHSSNNF-Gly(Me)-Ile(Me)-LSSTNVGSNTP-NH2] ({C20 diacid-γGlu}-RCNTATCATQRLAEFLRHSSNNF[Sar][NMeI]LSSTNVGSNTP-NH2; disulfide 2-7)",SS (SS indicates solubility ≥ 1mg/ml),SS (SS indicates solubility ≥ 1mg/ml),SS (SS indicates solubility ≥ 1mg/ml),SS (SS indicates solubility ≥ 1mg/ml),SS (SS indicates solubility ≥ 1mg/ml),SS (SS indicates solubility ≥ 1mg/ml),SS (SS indicates solubility ≥ 1mg/ml),

# — patent EP3046573B1, “AMYLIN ANALOGUES” (Zealand Pharma A/S, priority 2013, dated 2015)
